Assay results from patent US20070280975A1, “Method for Producing Maca Extract” (Suntory Limited, priority 2004, published 2007).

Test system: mast cells
Test: Suppressive effect on the isolation of histamine from mast cells (compound 48/80 induced)
Type: cell-based, Wister rats
Settings: DSCG 0.1 mg/mL; same line of test procedures
Procedure: The anti-allergic effects of the Maca extract of the present invention can be evaluated by the suppressive effect on the isolation of histamine from mast cells. The Suppressive Effect on the Isolation of Histamine from Mast Cells The test was conducted according to the method of Yuko HIRAI, et al. (Natural Medicines: Vol. 37, p374-380, 1983). That is, Tyrode was interperitoneally injected to Wister rats bled to death and peritoneal cavity cells were taken. Therefrom, mast cells were isolated by the multilevel centrifugal method using Bovine Serum Albumin (BSA)/physiological saline (relative gravity: 1.068). […] The resultant was then ice cooled and amount of histamine in the supernatant after centrifugation (150 g×5 minutes) was measured by high performance liquid chromatography with fluorescence detector attachment. […] The solution obtained was each measured to 0.25 mg/mL, and the above explained suppressive effect on the isolation of histamine from mast cell was evaluated. On the other hand, the above explained suppressive effect on the isolation of histamine from mast cell was evaluated for control solutions 1 to 3 which were obtained in the same procedures as for the solutions of the present invention except for extraction condition such as extraction temperature and ethanol concentration.

`O=C(O)c1cc(=O)c2c(OCC(O)COc3cccc4oc(C(=O)O)cc(=O)c34)cccc2o1` [DSCG, sodium cromoglycate] was tested, and the “suppressive effect on isolation of histamine” value was 50%.
